pIC50: −log10 of the molar value. Calls of active or inactive are those of the source. No cut-off for these calls is given here.
Key:
[1] = system: HCT-116; test: Cytotoxicity against human HCT-116 cells assessed as cell death at 5 uM incubated for 24 hrs by PI staining based FACS analysis relative to control; format: functional
[2] = target: T1, Histone deacetylase (Homo sapiens) (UniProt Q13547+O15379+Q9UBN7+Q92769+Q9UQL6+Q8WUI4+Q9BY41+Q96DB2+P56524+Q9UKV0+Q969S8); test: Inhibition of HDAC in human U-937 cells assessed as upregulation of histone H3 acetylation at lysine 14 residue at 5 uM incubated for 24 hrs by immunoblotting analysis; format: cell-based
[3] = system: HCT-116; test: Induction of cell cycle arrest in human HCT-116 assessed as accumulation of cells in G2/M phase at 1 to 5 uM incubated for 24 hrs by FACS analysis relative to SAHA; format: functional; settings: dose 1-5 µM
[4] = target: T1, Histone deacetylase (Homo sapiens); test: Inhibition of HDAC in human HCT-116 cells assessed as upregulation of acetyl alpha-tubulin level at 1 to 5 uM incubated for 24 hrs by immunoblotting analysis; format: cell-based; settings: dose 1-5 µM
[5] = system: U-937; test: Induction of apoptosis in human U-937 cells assessed as increased p21 protein expression level at 1 to 5 uM incubated for 24 hrs by immunoblotting analysis; format: functional, cell-based; settings: dose 1-5 µM
[6] = target: Histone deacetylase; format: subcellular, Homo sapiens, Nucleus; settings: hela
Description: Inhibition of HDAC in human HeLa cell nuclear extract using Kac fluorogenic peptide as substrate containing residues 379-382 of p53 by fluorescence assay

[7] = system: HCT-116; test: Induction of apoptosis in human HCT-116 cells assessed as increased p21 protein expression level at 1 to 5 uM incubated for 24 hrs by immunoblotting analysis; format: functional, cell-based; settings: dose 1-5 µM
[8] = system: U-937; test: Induction of cell cycle arrest in human U-937 assessed as decrease accumulation of cells in G1 phase at 5 uM incubated for 24 hrs by FACS analysis; format: functional, cell-based
[9] = system: U-937; test: Induction of cell cycle arrest in human U-937 assessed as increase accumulation of cells in G2/M phase at 1 to 5 uM incubated for 24 hrs by FACS analysis; format: functional, cell-based; settings: dose 1-5 µM
[10] = system: HCT-116; test: Cytotoxicity against human HCT-116 cells assessed as reduction in cell death at 1 uM incubated for 24 hrs by PI staining based FACS analysis; format: functional
[11] = target: T1, Histone deacetylase (Homo sapiens); test: Inhibition of HDAC in human U-937 cells assessed as upregulation of histone H3 acetylation at lysine 14 residue at 1 uM incubated for 24 hrs by immunoblotting analysis; format: cell-based
[12] = system: U-937; test: Cytotoxicity against human U-937 cells assessed as cell death at 5 uM incubated for 24 hrs by PI staining based FACS analysis relative to control; format: functional
[13] = system: U-937; test: Induction of cell cycle arrest in human U-937 assessed as reduced accumulation of cells in S phase at 1 uM incubated for 24 hrs by FACS analysis; format: functional, cell-based
[14] = target: Histone deacetylase 4 (Homo sapiens) (UniProt P56524); test: Inhibition of HDAC4 (unknown origin) at 10 uM using fluorogenic peptide as substrate pre-incubated for 15 mins followed by substrate addition incubated for 30 mins by fluorescence assay; settings: time 45.0 min
[15] = target: T1, Histone deacetylase (Homo sapiens); test: Inhibition of HDAC in human U-937 cells assessed as upregulation of acetyl alpha-tubulin level at 5 uM incubated for 24 hrs by immunoblotting analysis; format: cell-based
[16] = target: T2, Protein deacetylase HDAC6 (Homo sapiens, UniProt Q9UBN7); test: Inhibition of HDAC6 (unknown origin) using fluorogenic peptide as the substrate containing residues 379-382 of p53at 10 uM pre-incubated for 15 mins followed by substrate addition incubated for 30 mins by multimode plate reader
T2 sequence (Q9UBN7 whole entry): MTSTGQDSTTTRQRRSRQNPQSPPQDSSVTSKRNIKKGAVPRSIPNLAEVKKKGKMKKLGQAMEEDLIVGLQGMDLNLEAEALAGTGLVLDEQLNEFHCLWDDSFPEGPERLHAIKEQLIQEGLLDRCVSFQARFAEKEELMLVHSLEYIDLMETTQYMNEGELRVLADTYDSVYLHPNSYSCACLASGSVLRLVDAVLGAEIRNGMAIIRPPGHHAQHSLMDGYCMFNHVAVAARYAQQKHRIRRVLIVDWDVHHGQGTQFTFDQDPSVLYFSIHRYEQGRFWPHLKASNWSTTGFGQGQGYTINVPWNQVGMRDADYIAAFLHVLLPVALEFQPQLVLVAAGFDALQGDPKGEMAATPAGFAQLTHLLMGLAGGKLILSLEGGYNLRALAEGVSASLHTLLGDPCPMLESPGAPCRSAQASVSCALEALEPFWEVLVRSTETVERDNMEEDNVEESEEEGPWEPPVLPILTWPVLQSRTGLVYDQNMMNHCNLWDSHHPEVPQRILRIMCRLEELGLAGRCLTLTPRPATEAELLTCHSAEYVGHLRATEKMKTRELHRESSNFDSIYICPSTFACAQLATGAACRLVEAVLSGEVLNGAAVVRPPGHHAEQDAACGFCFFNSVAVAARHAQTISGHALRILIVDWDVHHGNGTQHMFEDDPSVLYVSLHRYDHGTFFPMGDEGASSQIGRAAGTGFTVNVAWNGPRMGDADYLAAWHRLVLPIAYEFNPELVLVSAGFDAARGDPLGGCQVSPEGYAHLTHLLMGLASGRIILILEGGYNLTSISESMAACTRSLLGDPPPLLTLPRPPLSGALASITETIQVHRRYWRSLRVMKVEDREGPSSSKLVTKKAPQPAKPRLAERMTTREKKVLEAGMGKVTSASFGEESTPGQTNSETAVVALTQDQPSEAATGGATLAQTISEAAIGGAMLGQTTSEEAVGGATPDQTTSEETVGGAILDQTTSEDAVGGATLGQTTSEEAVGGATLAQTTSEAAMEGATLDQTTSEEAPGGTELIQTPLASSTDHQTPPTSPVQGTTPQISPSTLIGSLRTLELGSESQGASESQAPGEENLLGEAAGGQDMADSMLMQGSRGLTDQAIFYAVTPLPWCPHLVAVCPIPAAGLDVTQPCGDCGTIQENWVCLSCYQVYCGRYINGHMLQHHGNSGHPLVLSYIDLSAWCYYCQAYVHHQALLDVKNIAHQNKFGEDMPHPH

[17] = system: U-937; test: Induction of cell cycle arrest in human U-937 assessed as decrease accumulation of cells in G1 phase at 1 to 5 uM incubated for 24 hrs by FACS analysis; format: functional, cell-based; settings: dose 1-5 µM
[18] = system: HCT-116; test: Cytotoxicity against human HCT-116 cells assessed as cell viability incubated for 24 hrs by MTT assay; format: functional, cell-based; settings: HCT-116, 24 h
[19] = system: U-937; test: Cytotoxicity against human U-937 cells assessed as cell viability incubated for 24 hrs by MTT assay; format: functional, cell-based; settings: U-937, 24 h
[20] = target: T3, Protein deacetylase HDAC6 (Homo sapiens) (UniProt Q9UBN7); test: Inhibition of HDAC6 (unknown origin) at 10 uM using fluorogenic peptide as substrate pre-incubated for 15 mins followed by substrate addition incubated for 30 mins by fluorescence assay; settings: time 45.0 min
T3 sequence (whole entry): T2 sequence (Q9UBN7 whole entry)

[21] = target: T4, Histone deacetylase 1 (Homo sapiens, UniProt Q13547); test: Inhibition of HDAC1 (unknown origin) at 10 uM using fluorogenic peptide as substrate pre-incubated for 15 mins followed by substrate addition incubated for 30 mins by fluorescence assay relative to control; settings: time 45.0 min
[22] = target: T1, Histone deacetylase (Homo sapiens); test: Inhibition of HDAC in human HCT-116 cells assessed as upregulation of histone H3 acetylation at lysine 14 residue at 1 uM incubated for 24 hrs by immunoblotting analysis; format: cell-based
[23] = system: U-937; test: Cytotoxicity against human U-937 cells assessed as cell death at 1 to 5 uM incubated for 24 hrs by PI staining based FACS analysis relative to control; format: functional; settings: dose 1-5 µM
[24] = target: T4, Histone deacetylase 1; test: Inhibition of HDAC1 (unknown origin) using fluorogenic peptide as the substrate containing residues 379-382 of p53 pre-incubated for 15 mins followed by substrate addition incubated for 30 mins by multimode plate reader
[25] = system: U-937; test: Induction of cell cycle arrest in human U-937 assessed as decrease accumulation of cells in S phase at 1 to 5 uM incubated for 24 hrs by FACS analysis; format: functional, cell-based; settings: dose 1-5 µM
[26] = system: HCT-116; test: Induction of cell cycle arrest in human HCT-116 assessed as decrease accumulation of cells in G1 phase at 1 to 5 uM incubated for 24 hrs by FACS analysis; format: functional, cell-based; settings: dose 1-5 µM
[27] = system: HCT-116; test: Induction of cell cycle arrest in human HCT-116 assessed as decrease accumulation of cells in S phase at 1 to 5 uM incubated for 24 hrs by FACS analysis; format: functional, cell-based; settings: dose 1-5 µM

T4 sequence (Q13547 whole entry): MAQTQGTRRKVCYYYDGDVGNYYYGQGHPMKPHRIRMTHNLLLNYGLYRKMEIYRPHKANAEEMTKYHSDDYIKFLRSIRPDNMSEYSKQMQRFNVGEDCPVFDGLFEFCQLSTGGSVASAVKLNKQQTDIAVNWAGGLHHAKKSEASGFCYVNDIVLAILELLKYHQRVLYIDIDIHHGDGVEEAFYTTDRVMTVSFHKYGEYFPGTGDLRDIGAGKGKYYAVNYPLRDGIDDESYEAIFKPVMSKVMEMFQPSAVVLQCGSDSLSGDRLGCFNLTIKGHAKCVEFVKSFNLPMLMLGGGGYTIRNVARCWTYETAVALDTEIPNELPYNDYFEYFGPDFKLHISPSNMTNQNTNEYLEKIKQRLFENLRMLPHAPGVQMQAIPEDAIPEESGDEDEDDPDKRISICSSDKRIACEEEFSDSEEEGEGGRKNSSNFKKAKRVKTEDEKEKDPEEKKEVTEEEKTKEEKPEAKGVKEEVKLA
Chain of Histone deacetylase 4 (Homo sapiens) (P56524 whole entry): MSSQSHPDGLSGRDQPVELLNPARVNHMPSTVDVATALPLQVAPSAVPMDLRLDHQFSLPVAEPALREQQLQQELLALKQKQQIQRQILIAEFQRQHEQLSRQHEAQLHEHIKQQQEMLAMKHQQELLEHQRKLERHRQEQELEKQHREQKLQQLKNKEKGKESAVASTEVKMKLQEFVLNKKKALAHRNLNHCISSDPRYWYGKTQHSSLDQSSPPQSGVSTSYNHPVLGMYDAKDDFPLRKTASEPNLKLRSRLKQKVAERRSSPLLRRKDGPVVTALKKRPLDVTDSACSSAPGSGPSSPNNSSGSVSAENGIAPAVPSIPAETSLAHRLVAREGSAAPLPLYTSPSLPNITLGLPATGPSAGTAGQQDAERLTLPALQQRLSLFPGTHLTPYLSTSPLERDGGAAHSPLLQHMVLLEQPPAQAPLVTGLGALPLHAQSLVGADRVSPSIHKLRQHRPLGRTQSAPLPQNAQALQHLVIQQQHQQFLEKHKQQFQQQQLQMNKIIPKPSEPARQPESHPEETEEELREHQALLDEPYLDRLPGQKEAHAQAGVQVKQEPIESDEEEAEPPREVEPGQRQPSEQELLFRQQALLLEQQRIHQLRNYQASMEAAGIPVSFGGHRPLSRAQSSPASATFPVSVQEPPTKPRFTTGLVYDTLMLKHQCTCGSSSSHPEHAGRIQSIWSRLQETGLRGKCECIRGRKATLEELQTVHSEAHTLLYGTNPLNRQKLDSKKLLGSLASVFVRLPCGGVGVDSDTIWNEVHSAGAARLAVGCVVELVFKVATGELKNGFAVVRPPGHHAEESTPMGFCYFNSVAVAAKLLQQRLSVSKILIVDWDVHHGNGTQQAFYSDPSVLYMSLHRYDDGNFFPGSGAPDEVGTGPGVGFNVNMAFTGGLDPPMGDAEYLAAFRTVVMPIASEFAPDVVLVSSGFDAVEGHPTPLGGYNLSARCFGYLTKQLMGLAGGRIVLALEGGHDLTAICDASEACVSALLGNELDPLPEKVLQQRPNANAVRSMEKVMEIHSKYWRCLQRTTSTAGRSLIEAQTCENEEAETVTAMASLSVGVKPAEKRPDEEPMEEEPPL

**Q.** Which results are given for `O=C(CCCCCN1C(=O)C[C@@H](c2ccc(Cl)c(Cl)c2)Sc2ccccc21)NO`?
**A.** Activity [1]: 22%; Activity [2]: Active; Activity [3]: Active; Activity [4]: Active; Activity [5]: Active; IC50 [6]: 0.1651 µM; Activity [7]: Active; Activity [8]: Active; Activity [9]: Active; Activity [10]: Active; Activity [11]: Active; Activity [12]: ~12%; Activity [13]: Active

**Q.** For `O=C(NCC1(c2nc(-c3ccccc3)cs2)CCOCC1)c1cccc(-c2noc(C(F)(F)F)n2)c1`, which inhibition [14] is on record?
**A.** Its inhibition is 99.2%.

**Q.** With `O=C(CCCCCN1C(=O)CC(c2ccc(Cl)c(Cl)c2)S(=O)(=O)c2ccccc21)NO` (racemic) as the molecule, how does the Activity [15] read?
**A.** The Activity was “Active”.

**Q.** What about the Activity [2] of the same molecule?
**A.** Its Activity is “Active”.

**Q.** What about the pIC50 [16] of the same molecule?
**A.** The pIC50 was 7.91.

**Q.** What about the Activity [3] of the same molecule?
**A.** The Activity was “Active”.

**Q.** And the Activity [4]?
**A.** Its Activity is “Active”.

**Q.** And the Activity [5]?
**A.** The Activity was “Active”.

**Q.** And the IC50 [6]?
**A.** The IC50 was 0.0271 µM.

**Q.** And the Activity [17]?
**A.** Its Activity is “Active”.

**Q.** What about the pIC50 [18] of the same molecule?
**A.** The pIC50 was 4.73.

**Q.** And the pIC50 [19]?
**A.** Its pIC50 is 4.86.

**Q.** What about the Activity [7] of the same molecule?
**A.** Its Activity is “Active”.

**Q.** What about the inhibition [20] of the same molecule?
**A.** The inhibition was 99.5%.

**Q.** What about the inhibition [21] of the same molecule?
**A.** The inhibition was 96.9%.

**Q.** What about the Activity [22] of the same molecule?
**A.** Its Activity is “Active”.

**Q.** And the Activity [23]?
**A.** The Activity was about 6%.

**Q.** And the pIC50 [24]?
**A.** The pIC50 was 7.05.

**Q.** And the Activity [9]?
**A.** The Activity was “Active”.

**Q.** And the Activity [25]?
**A.** The Activity was “Active”.

**Q.** What about the Activity [26] of the same molecule?
**A.** Its Activity is “Active”.

**Q.** And the Activity [27]?
**A.** The Activity was “Active”.

**Q.** What about the Activity [11] of the same molecule?
**A.** The Activity was “Active”.

— ChEMBL document CHEMBL5365438, “2-Substituted 1,5-benzothiazepine-based HDAC inhibitors exert anticancer activities on human solid and acute myeloid leukemia cell lines” (Bioorg Med Chem, 2023)
